Assay results from paper PMC8151655, “Some Dietary Phenolic Compounds Can Activate Thyroid Peroxidase and Inhibit Lipoxygenase-Preliminary Study in the Model Systems” (International Journal of Molecular Sciences, 2021).

T1: thyroid peroxidase (TPO) (Sus scrofa, UniProt P09933)
T1 construct: The frozen thyroid gland was minced with a fork; from tissue; host or cells: porcine thyroid gland (homogenate, centrifuged, salted out to 60%)
T1 sequence (P09933 15-926): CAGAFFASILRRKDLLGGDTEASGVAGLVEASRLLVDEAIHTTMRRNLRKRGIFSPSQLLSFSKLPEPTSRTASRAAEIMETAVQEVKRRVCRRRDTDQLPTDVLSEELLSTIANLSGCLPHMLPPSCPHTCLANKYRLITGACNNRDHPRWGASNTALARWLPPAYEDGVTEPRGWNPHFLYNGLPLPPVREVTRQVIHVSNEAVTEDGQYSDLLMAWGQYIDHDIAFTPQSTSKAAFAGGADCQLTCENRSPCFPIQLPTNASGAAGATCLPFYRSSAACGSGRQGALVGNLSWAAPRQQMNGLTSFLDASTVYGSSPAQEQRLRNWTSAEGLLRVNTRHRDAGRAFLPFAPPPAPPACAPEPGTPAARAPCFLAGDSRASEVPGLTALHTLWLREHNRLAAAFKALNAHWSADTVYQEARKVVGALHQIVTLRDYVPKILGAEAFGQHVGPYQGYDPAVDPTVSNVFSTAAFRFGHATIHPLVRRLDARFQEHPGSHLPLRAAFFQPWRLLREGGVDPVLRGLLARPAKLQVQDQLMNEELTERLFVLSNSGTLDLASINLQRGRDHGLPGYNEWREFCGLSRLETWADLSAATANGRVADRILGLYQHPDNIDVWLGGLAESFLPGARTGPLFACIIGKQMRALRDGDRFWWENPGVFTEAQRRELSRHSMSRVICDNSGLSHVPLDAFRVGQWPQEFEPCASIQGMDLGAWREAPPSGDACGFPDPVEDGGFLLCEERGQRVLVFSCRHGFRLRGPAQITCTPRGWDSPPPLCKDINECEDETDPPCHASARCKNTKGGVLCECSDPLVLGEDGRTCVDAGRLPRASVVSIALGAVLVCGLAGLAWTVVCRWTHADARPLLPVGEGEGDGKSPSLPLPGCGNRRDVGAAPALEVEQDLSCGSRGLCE

T2: soybean lipoxygenase type 1-B (LOX) (Glycine max, UniProt P08170)
T2 construct: purchased Sigma-Aldrich Company (Poznan, Poland)
T2 sequence (P08170 1-839): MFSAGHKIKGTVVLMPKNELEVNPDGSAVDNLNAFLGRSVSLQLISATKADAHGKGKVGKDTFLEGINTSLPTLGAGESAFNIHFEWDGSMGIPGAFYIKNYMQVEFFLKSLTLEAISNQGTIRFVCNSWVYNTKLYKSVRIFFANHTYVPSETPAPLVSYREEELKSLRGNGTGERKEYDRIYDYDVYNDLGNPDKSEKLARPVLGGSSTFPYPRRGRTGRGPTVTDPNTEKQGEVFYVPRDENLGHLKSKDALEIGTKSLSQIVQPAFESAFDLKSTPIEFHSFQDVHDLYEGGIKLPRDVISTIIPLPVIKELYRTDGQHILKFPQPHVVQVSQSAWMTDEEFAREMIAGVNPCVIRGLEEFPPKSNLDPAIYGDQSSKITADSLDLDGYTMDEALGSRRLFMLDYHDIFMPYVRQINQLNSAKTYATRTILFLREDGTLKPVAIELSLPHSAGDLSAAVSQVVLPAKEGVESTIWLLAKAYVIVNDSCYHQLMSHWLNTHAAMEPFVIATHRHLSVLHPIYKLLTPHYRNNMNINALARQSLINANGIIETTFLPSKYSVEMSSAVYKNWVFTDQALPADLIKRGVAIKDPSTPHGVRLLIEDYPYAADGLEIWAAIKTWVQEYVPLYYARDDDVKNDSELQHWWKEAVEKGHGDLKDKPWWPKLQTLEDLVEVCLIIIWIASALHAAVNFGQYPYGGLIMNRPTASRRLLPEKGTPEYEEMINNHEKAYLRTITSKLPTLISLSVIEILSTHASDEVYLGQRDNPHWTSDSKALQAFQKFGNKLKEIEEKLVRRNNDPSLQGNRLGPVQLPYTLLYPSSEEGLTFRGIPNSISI


Experiments:
thyroid peroxidase (TPO) = target: T1, thyroid peroxidase (TPO); assay: TPO assay (guaiacol oxidation, activation kinetics); assay type: biochemical, Porcine; conditions: n = 9, read-out: AC50 (concentration resulting in 50% activation)
Procedure: (§1) The assay was prepared according to Jomaa et al., with some modifications. Porcine thyroid glands were purchased at a slaughterhouse (Lublin, Poland) and stored at −20 °C until used. The frozen thyroid gland was minced with a fork. The mince was suspended in a buffer containing 0.25 M sucrose, 2 mM tris–HCl, 100 mM KCl, 40 mM NaCl and 10 mM MgCl2 (pH 7.4) and homogenized using Philips homogenizer. The thyroid gland was centrifuged two times at 4000 RPM per 15 min at a temperature + 4 °C. The enzyme protein was then salted out to 60%. The supernatant was stored at − 20 °C until used.
(§2) The assay was used according to Jomaa et al., with some modification. The measurement was made using a plate spectrophotometer (BioTek, Model Epoch2TC, Winooski, VT, USA) in 96–well plates at a wavelength of 470 nm. Absorbance readings were recorded every minute for a total of 3 min at 37 °C. TPO activity is expressed as a change of absorption per minute. All measurements were performed in three replicates. The AC50 (activator concentration) values were calculated at fitted models as the concentration of the tested compound providing 50% of the activation based on a dose-dependent mode of action.

[1] = blood samples of rabbits; cited from earlier work
[2] = target: T2, soybean lipoxygenase type 1-B (LOX); assay: Inhibition of lipoxygenase activity (LOXI) with linoleic acid as substrate; assay type: biochemical; conditions: for Mode of Inhibition: Lineweaver-Burk, linoleic acid substrate
Procedure: Measurement was made at a wavelength of 234 nm. One unit of LOX activity was defined as an increase in absorbance of 0.001 per minute at 234 nm. All measurements were performed in four replicates.

[3] = ABTS radical scavenging assay; conditions: 15 min incubation at room temperature, n = 9; read-out: IC50 ABTS radical scavenging ability
Procedure: ABTS radical scavenging activity was determined according to Re et al. with slight modifications using a microplate spectrophotometer (BioTek, Model Epoch2TC, Winooski, VT, USA) after 15 min of incubation at room temperature.

[4] = set-up: method as in PMID 10730826; conditions: humans, FA in its free form, for example from beer; cited from earlier work
LOX [5] = test system: LOX; set-up: method as in doi:10.3390/app9030568; conditions: previous studies; cited from earlier work
LOX [6] = conditions: different concentration than in the presented study; cited from earlier work
[7] = FA perfused as a free pure compound in the rat intestine; cited from earlier work
[8] = set-up: method as in earlier work; conditions: cited from earlier work
[9] = substrate: COc1ccccc1O; assay: TPO assay (guaiacol oxidation, activation kinetics); assay type: biochemical, Porcine; conditions: other: TPO substrate guaiacol, n = 9; pH 7.4
Procedure: as §1, §2

Km ([2]; LOX substrate linoleic acid, read-out: Km without Inhibitor)	Molecule	AC50 (thyroid peroxidase (TPO))	Absolute bioavailability [1]	IC50 [2]	Ki [2]	Mode of Inhibition [2]	IC50 [3]	Urinary excretion [4]	Mode of LOX inhibition (LOX [5])	LOX inhibition (LOX [6])	Bioavailability [7]	Oral bioavailability [8]	Km [9]
–	COc1cc(C(=O)O)cc(OC)c1O [Syringic acid, syringic acid]	690 ± 34 µM	86.27%	9 ± 0.4 µM	5 ± 0.3 µM	uncompetitive	220 ± 11 µM	–	–	–	–	–	–
–	COc1cc(/C=C/C(=O)O)ccc1O [Ferulic acid, ferulic acid]	390 ± 19 µM	–	27 ± 1.3 µM	8 ± 0.4 µM	uncompetitive	410 ± 20 µM	19–98%	competitive	74.4%	about 50%	–	–
–	O=C(O)/C=C/c1ccccc1 [trans–cinnamic acid, trans-cinnamic acid]	100 ± 5 µM	–	9 ± 0.4 µM	9 ± 0.4 µM	uncompetitive	2120 ± 106 µM	–	–	66.6%	–	low	–
7 ± 0.3 µM	CCCCC/C=C\C/C=C\CCCCCCCC(=O)O [Linoleic acid, reference compound]	–	–	–	–	–	–	–	–	–	–	–	–
–	thyroid peroxidase (TPO) (Sus scrofa) (protein, The frozen thyroid gland was minced with a fork; from tissue; host or cells: porcine thyroid gland (homogenate, centrifuged, salted out to 60%)) CAGAFFASILRRKDLLGGDTEASGVAGLVEASRLLVDEAIHTTMRRNLRKRGIFSPSQLLSFSKLPEPTSRTASRAAEIMETAVQEVKRRVCRRRDTDQLPTDVLSEELLSTIANLSGCLPHMLPPSCPHTCLANKYRLITGACNNRDHPRWGASNTALARWLPPAYEDGVTEPRGWNPHFLYNGLPLPPVREVTRQVIHVSNEAVTEDGQYSDLLMAWGQYIDHDIAFTPQSTSKAAFAGGADCQLTCENRSPCFPIQLPTNASGAAGATCLPFYRSSAACGSGRQGALVGNLSWAAPRQQMNGLTSFLDASTVYGSSPAQEQRLRNWTSAEGLLRVNTRHRDAGRAFLPFAPPPAPPACAPEPGTPAARAPCFLAGDSRASEVPGLTALHTLWLREHNRLAAAFKALNAHWSADTVYQEARKVVGALHQIVTLRDYVPKILGAEAFGQHVGPYQGYDPAVDPTVSNVFSTAAFRFGHATIHPLVRRLDARFQEHPGSHLPLRAAFFQPWRLLREGGVDPVLRGLLARPAKLQVQDQLMNEELTERLFVLSNSGTLDLASINLQRGRDHGLPGYNEWREFCGLSRLETWADLSAATANGRVADRILGLYQHPDNIDVWLGGLAESFLPGARTGPLFACIIGKQMRALRDGDRFWWENPGVFTEAQRRELSRHSMSRVICDNSGLSHVPLDAFRVGQWPQEFEPCASIQGMDLGAWREAPPSGDACGFPDPVEDGGFLLCEERGQRVLVFSCRHGFRLRGPAQITCTPRGWDSPPPLCKDINECEDETDPPCHASARCKNTKGGVLCECSDPLVLGEDGRTCVDAGRLPRASVVSIALGAVLVCGLAGLAWTVVCRWTHADARPLLPVGEGEGDGKSPSLPLPGCGNRRDVGAAPALEVEQDLSCGSRGLCE	–	–	–	–	–	–	–	–	–	–	–	60 ± 3 µM
